Key:
[1] = tested on: OPM-2 human multiple myeloma cell line; test: Cell Viability Assay (OPM-2 10 FBS); format: cell-based; conditions: OPM-2 cells, CellTiter-Glo
Method in brief: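 OPM-2 myeloma cells, 3000/well in medium with 10% FBS, exposed to serially diluted compounds for 16 h at 37° C./5% CO2. Viability read by CellTiter-Glo luminescence; IC50 from 4-parameter logistic fit.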

[2] = target: T1, Mcl-1/Bim interaction, recombinant human Mcl-1 (171-327) (Homo sapiens, UniProt Q07820); test: Cell free Mcl-1: Bim Affinity Assay (Mcl-1 HTRF); format: binding
T1 construct: made in house
T1 sequence (Q07820 171-327): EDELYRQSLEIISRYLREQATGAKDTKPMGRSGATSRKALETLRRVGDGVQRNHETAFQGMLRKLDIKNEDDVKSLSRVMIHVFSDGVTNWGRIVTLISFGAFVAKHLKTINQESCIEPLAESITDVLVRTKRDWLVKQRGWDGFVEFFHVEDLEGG
Method in brief: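 TR-FRET competition assay with biotinylated human Bim peptide (residues 51-76); reaction plates incubated overnight before reading. IC50 values came from duplicate data fitted to a four-parameter sigmoidal competition curve.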

[3] = Homo sapiens, OPM-2, 16 h, 16 h
[4] = TR-FRET, 0.1 nM Mcl-1 (171-327), 0.05 nM biotin-Bim (51-76)
[5] = Homo sapiens, OPM-2, 16 h, 16 h incubation
[6] = cell free Mcl-1:Bim TR-FRET, recombinant human Mcl-1 (171-327)

| SMILES | IC50 [1, 3] [nM] | IC50 [2, 4] [nM] | IC50 ([1]; 16 h) [nM] | other results |
| --- | --- | --- | --- | --- |
| C[C@@H]1CS(=O)(=O)NC(=O)c2ccc3c(c2)N(C[C@@H]2CC[C@H]2C(=O)/C=C/[C@@H]1C)C[C@@]1(CCCc2cc(Cl)ccc21)CO3 (single isomer, unassigned) [Example 1059] | – | 9.7 | – | IC50 [1, 5]: 4910 nM |
| COCCCO[C@H]1/C=C/C[C@H](C)N(CCCOC)S(=O)(=O)NC(=O)c2ccc3c(c2)N(C[C@@H]2CC[C@H]21)C[C@@]1(CCCc2cc(Cl)ccc21)CO3 (single isomer, unassigned) [Example 75] | 875 | 1.66 | – | – |
| O=C1NS(=O)(=O)[C@@H]2CCC[C@H](/C=C/[C@H](O)[C@@H]3CC[C@H]3CN3C[C@@]4(CCCc5cc(Cl)ccc54)COc4ccc1cc43)C2 (single isomer, unassigned) [Example 109] | – | 1.34 | 12200 | – |
| C[C@H]1C/C=C/[C@H](OCCN2CCOCC2)[C@@H]2CC[C@H]2CN2C[C@@]3(CCCc4cc(Cl)ccc43)COc3ccc(cc32)C(=O)NS(=O)(=O)N1 [Example 67, (1S,3′R,6′R,7′S,8′E,11′S)-6-chloro-11′-methyl-7′-(2-(4-morpholinyl)ethoxy)-3,4-dihydro-2H,15′H-spiro[naphthalene-1,22′-[20]oxa[13]thia[1,12,14]triazatetracyclo[14.7.2.0^3,6.0^19,24]pentacosa[8,16,18,24]tetraen]-15′-one 13′,13′-dioxide] | 450 | 1.51 | – | – |
| C[C@@H]1[C@@H](C)C/C=C/[C@H](O[C@@H]2CCOC2=O)[C@@H]2CC[C@H]2CN2C[C@@]3(CCCc4cc(Cl)ccc43)COc3ccc(cc32)C(=O)NS1(=O)=O (single isomer, unassigned) [Example 428] | 176 | 0.333 | – | – |
| C[C@H]1C/C=C/C[C@H](O)[C@@H]2CC[C@H]2CN2C[C@@]3(CCCc4cc(Cl)ccc43)COc3ccc(cc32)C(=O)NS(=O)(=O)[C@H]1C (single isomer, unassigned) [Example 557] | – | – | 1040 | IC50 [2, 6]: 1.08 nM |
| N#CCC[C@H]1CC/C=C/[C@H](O)[C@@H]2CC[C@H]2CN2C[C@@]3(CCCc4cc(Cl)ccc43)COc3ccc(cc32)C(=O)NS1(=O)=O (single isomer, unassigned) [Example 614] | – | – | 8070 | IC50 [2, 6]: 1.13 nM |
| COC[C@H](O)C[C@@H]1CC/C=C/[C@H](OC)[C@@H]2CC[C@H]2CN2C[C@@]3(CCCc4cc(Cl)ccc43)COc3ccc(cc32)C(=O)NS1(=O)=O (single isomer, unassigned) [Example 651] | – | – | 229 | IC50 [2, 6]: 0.316 nM |
| C[C@@H]1[C@@H](C)C/C=C/[C@H](OCCNc2ccccc2)[C@@H]2CC[C@H]2CN2C[C@@]3(CCCc4cc(Cl)ccc43)COc3ccc(cc32)C(=O)NS1(=O)=O [Example 11, (1S,3′R,6′R,7′S,8′E,11′S,12′R)-6-chloro-11′,12′-dimethyl-7′-(2-(phenylamino)ethoxy)-3,4-dihydro-2H,15′H-spiro[naphthalene-1,22′-[20]oxa[13]thia[1,14]diazatetracyclo[14.7.2.0^3,6.0^19,24]pentacosa[8,16,18,24]tetraen]-15′-one 13′,13′-dioxide] | 3650 | 5.22 | – | – |
| COCCO[C@H]1/C=C/[C@H](C)[C@H](C)CS(=O)(=O)NC(=O)c2ccc3c(c2)N(C[C@@H]2CC[C@H]21)C[C@@]1(CCCc2cc(Cl)ccc21)CO3 (single isomer, unassigned) [Example 1065] | – | 0.402 | – | IC50 ([1]; 16 h incubation): 94.9 nM |
| C[C@@H]1[C@@H](C)C/C=C/[C@H](OCCN2C[C@@H]3C[C@H]2CO3)[C@@H]2CC[C@H]2CN2C[C@@]3(CCCc4cc(Cl)ccc43)COc3ccc(cc32)C(=O)NS1(=O)=O [Example 520, (1S,3′R,6′R,7′S,8′E,11′S,12′R)-6-chloro-11,12′-dimethyl-7′-(2-((1S,4S)-2-oxa-5-azabicyclo[2.2.1]hept-5-yl)ethoxy)-3,4-dihydro-2H,15′H-spiro[naphthalene-1,22′-[20]oxa[13]thia[1,14]diazatetracyclo[14.7.2.0^3,6.0^19,24]pentacosa [8,16,18,24]tetraen]-15′-one 13′,13′-dioxide 2,2,2-trifluoroacetic Acid] | 142 | – | – | IC50 [2, 6]: 0.279 nM |
| COCCO[C@H]1/C=C/C[C@H](C)N(Cc2ccc(OC)cc2)S(=O)(=O)NC(=O)c2ccc3c(c2)N(C[C@@H]2CC[C@H]21)C[C@@]1(CCCc2cc(Cl)ccc21)CO3 [Example 82, (1S,3′R,6′R,7′S,8′E,11′S)-6-chloro-12′-(4-methoxybenzyl)-7′-(2-methoxyethoxy)-11′-methyl-3,4-dihydro-2H,15′H-spiro[naphthalene-1,22′-[20]oxa[13]thia[1,12,14]triazatetracyclo[14.7.2.0^3,6.0^19,24]pentacosa[8,16,18,24]tetraen]-15′-one 13′,13′-dioxide] | 2920 | 7.8 | – | – |
| CO[C@H]1/C=C/C[C@@H]2COCC[C@H]2S(=O)(=O)NC(=O)c2ccc3c(c2)N(C[C@@H]2CC[C@H]21)C[C@@]1(CCCc2cc(Cl)ccc21)CO3 (single isomer, unassigned) [Example 320] | – | 0.329 | 342 | – |
| COCCO[C@H]1/C=C/C[C@H]2COC[C@@H]2S(=O)(=O)NC(=O)c2ccc3c(c2)N(C[C@@H]2CC[C@H]21)C[C@@]1(CCCc2cc(Cl)ccc21)CO3 (single isomer, unassigned) [Example 1034] | – | 4.04 | – | IC50 ([1]; 16 h incubation): 8050 nM |
| O=C1NS(=O)(=O)[C@H](c2ccccn2)CC/C=C/[C@H](O)[C@@H]2CC[C@H]2CN2C[C@@]3(CCCc4cc(Cl)ccc43)COc3ccc1cc32 (single isomer, unassigned) [Example 692] | – | – | 1520 | IC50 [2, 6]: 0.6 nM |
| COCCN1[C@@H](C)C/C=C/[C@H](OC)[C@@H]2CC[C@H]2CN2C[C@@]3(CCCc4cc(Cl)ccc43)COc3ccc(cc32)C(=O)NS1(=O)=O [Example 27, (1S,3′R,6′R,7′S,8′E,11′S)-6-chloro-7′-methoxy-12′-(2-methoxyethyl)-11′-methyl-3,4-dihydro-2H,15′H-spiro[naphthalene-1,22′-[20]oxa[13]thia[1,12,14]triazatetracyclo[14.7.2.0^3,6.0^19,24]pentacosa[8,16,18,24]tetraen]-15′-one 13,13′-dioxide] | 970 | 0.422 | – | – |
| CC[C@H]1C/C=C/[C@H](O)[C@@H]2CC[C@H]2CN2C[C@@]3(CCCc4cc(Cl)ccc43)COc3ccc(cc32)C(=O)NS(=O)(=O)N1 (single isomer, unassigned) [Example 685] | – | – | 7180 | IC50 [2, 6]: 2.66 nM |

The next lines start with results.

| IC50 [1, 3] [nM] | IC50 [2, 4] [nM] | SMILES | IC50 ([1]; 16 h) [nM] | other results |
| --- | --- | --- | --- | --- |
| 2590 | 0.535 | O=C1NS(=O)(=O)NCC/C=C\[C@H](O)[C@@H]2CC[C@H]2CN2C[C@@]3(CCCc4cc(Cl)ccc43)COc3ccc1cc32 [Example 36, (1S,3′R,6′R,7′S,8′Z)-6-chloro-7′-hydroxy-3,4-dihydro-2H,15′H-spiro[naphthalene-1,22′-[20]oxa[13]thia[1,12,14]triazatetracyclo[14.7.2.0^3,6.0^19,24]pentacosa[8,16,18,24]tetraen]-15′-one 13′,13′-dioxide] | – | – |
| – | 0.994 | CCN1C(C)C/C=C\[C@H](O)[C@@H]2CC[C@H]2CN2C[C@@]3(CCCc4cc(Cl)ccc43)COc3ccc(cc32)C(=O)NS1(=O)=O (single isomer, unassigned) [Example 58] | 1180 | – |
| – | 0.377 | CC[C@@H]1CC/C=C/[C@H](OCCC(=O)N(C)C)[C@@H]2CC[C@H]2CN2C[C@@]3(CCCc4cc(Cl)ccc43)COc3ccc(cc32)C(=O)NS1(=O)=O [Example 1010, 3-(((1S,3′R,6′R,7′S,8′E,12′R)-6-chloro-12′-ethyl-13′,13′-dioxido-15′-oxo-3,4-dihydro-2H-spiro[naphthalene-1,22′-[20]oxa[13]thia[1,14]diazatetracyclo[14.7.2.0^3,6.0^19,24]pentacosa [8,16,18,24]tetraen]-7′-yl)oxy)-N,N-dimethylpropanamide] | – | IC50 [1, 5]: 298 nM |
| 488 | 0.877 | O=C1NS(=O)(=O)N2CCC[C@H]2C/C=C/[C@H](O)[C@@H]2CC[C@H]2CN2C[C@@]3(CCCc4cc(Cl)ccc43)COc3ccc1cc32 (single isomer, unassigned) [Example 345] | – | – |
| 1460 | 0.564 | C[C@@H]1CC/C=C/[C@H](O)[C@@H]2CC[C@H]2CN2C[C@@]3(CCC(F)(F)c4cc(Cl)ccc43)COc3ccc(cc32)C(=O)NS1(=O)=O [Example 8, (1S,3′R,6′R,7′S,8′E,12′R)-6-chloro-4,4-difluoro-7′-hydroxy-12′-methyl-3,4-dihydro-2H,15′H-spiro[naphthalene-1,22′-[20]oxa[13]thia[1,14]diazatetracyclo[14.7.2.0^3,6.0^19,24]pentacosa [8,16,18,24]tetraen]-15′-one 13′,13′-dioxide] | – | – |
| 3620 | 4.18 | COC1CC(N2[C@H](C)C/C=C/[C@H](O)[C@@H]3CC[C@H]3CN3C[C@@]4(CCCc5cc(Cl)ccc54)COc4ccc(cc43)C(=O)NS2(=O)=O)C1 (stereo partly drawn) [Example 79, (1S,3′R,6′R,7′S,8′E,11R)-6-chloro-7′-hydroxy-12′-(cis-3-methoxycyclobutyl)-11′-methyl-3,4-dihydro-2H,15′H-spiro[naphthalene-1,22′-[20]oxa[13]thia[1,12,14]triazatetracyclo[14.7.2.0^3,6.0^19,24]pentacosa[8,16,18,24]tetraen]-15′-one 13′,13′-dioxide] | – | – |

From US12091425B2 (AMGEN INC., priority 2016, dated 2024)
